Data: BindingDB's records for doi:10.1016/j.bmcl.2003.10.007 (Inotek Pharmaceuticals, 2003)
Where a name gives a salt, the structure may show the parent alone.

Test: Tested for inhibition of poly(ADP-ribose) polymerase-1 (PARP-1) in mouse using Cell protection assay

| SMILES | IC50 [µM] |
| --- | --- |
| Nc1ncnc2c1ncn2C1O[C@H](CNC(=O)CCC(=O)Nc2cccc3c2CNC3=O)[C@@H](O)[C@H]1O (stereo not given in full) | 0.1 |
| O=C(CCCCCCC(=O)Nc1cccc2c1CNC2=O)NC[C@H]1OC(n2cnc3c(=O)[nH]cnc32)[C@H](O)[C@@H]1O (stereo not given in full) | 68 |
| Nc1ncnc2c1ncn2C1O[C@H](CNC(=O)CCCCCCC(=O)Nc2cccc3c2CNC3=O)[C@@H](O)[C@H]1O (stereo not given in full) | 0.7 |
| Nc1ncnc2c1ncn2C1O[C@H](C(=O)N2CCNCC2)[C@@H](O)[C@H]1O (stereo not given in full) | > 300 |
| Nc1ncnc2c1ncn2C1O[C@H](CNC(=O)CC(=O)Nc2cccc3c2CNC3=O)[C@@H](O)[C@H]1O (stereo not given in full) | 1.9 |
| Nc1ncnc2c1ncn2C1O[C@H](CNC(=O)CCCCCCCC(=O)Nc2cccc3c2CNC3=O)[C@@H](O)[C@H]1O (stereo not given in full) | 2 |
| Nc1ncnc2c1ncn2C1O[C@H](CNC(=O)/C=C/c2ccc(C(=O)Nc3cccc4c3CNC4=O)cc2)[C@@H](O)[C@H]1O (stereo not given in full) | 10 |
| Nc1ncnc2c1ncn2C1O[C@H](CNC(=O)CCCCCC(=O)Nc2cccc3c2CNC3=O)[C@@H](O)[C@H]1O (stereo not given in full) | 3 |
| Nc1ncnc2c1ncn2[C@@H]1O[C@H](C(=O)N2CCN(CC(=O)Nc3cccc4c3CNC4=O)CC2)[C@@H](O)[C@H]1O [2-(4-((2S,3S,4R,5R)-5-(6-amino-9H-purin-9-yl)-3,4-dihydroxytetrahydrofuran-2-carbonyl)piperazin-1-yl)-N-(1-oxoisoindolin-4-yl)acetamide] | 0.045 |
| CN1CCN(CC(=O)Nc2cccc3c2CNC3=O)CC1 [2-(4-Methyl-piperazin-1-yl)-N-(1-oxo-2,3-dihydro-1H-isoindol-4-yl)-acetamide] | > 30 |
| CNc1ncnc2c1ncn2CC(=O)Nc1cccc2c1CNC2=O [2-(6-Methylamino-purin-9-yl)-N-(1-oxo-2,3-dihydro-1H-isoindol-4-yl)-acetamide] | 3 |
| O=C(Cn1cnc2ccccc21)Nc1cccc2c1CNC2=O [2-Benzoimidazol-1-yl-N-(1-oxo-2,3-dihydro-1H-isoindol-4-yl)-acetamide] | 3 |
| CCNCC(=O)Nc1cccc2c1CNC2=O [2-Ethylamino-N-(1-oxo-2,3-dihydro-1H-isoindol-4-yl)-acetamide] | 18 |
| CNCC(=O)Nc1cccc2c1CNC2=O [2-Methylamino-N-(1-oxo-2,3-dihydro-1H-isoindol-4-yl)-acetamide] | > 30 |
| O=C(CN1CCOCC1)Nc1cccc2c1CNC2=O [2-Morpholin-4-yl-N-(1-oxo-2,3-dihydro-1H-isoindol-4-yl)-acetamide] | > 30 |
| CN1CCN(CCC(=O)Nc2cccc3c2CNC3=O)CC1 [3-(4-Methyl-piperazin-1-yl)-N-(1-oxo-2,3-dihydro-1H-isoindol-4-yl)-propionamide] | > 30 |
| Nc1cccc2c1CNC2=O [4-Amino-2,3-dihydro-isoindol-1-one] | 30 |
| O=C1N=Cc2ccccc21 [Isoindol-1-one] | 30 |
| O=C(CN1CCNCC1)Nc1cccc2c1CNC2=O [N-(1-Oxo-2,3-dihydro-1H-isoindol-4-yl)-2-piperazin-1-yl-acetamide; hydrochloride] | 18 |
| Nc1ncnc2c1ncn2C1OC(CNC(=O)CCC(=O)Nc2cccc(-c3ccccc3)c2)[C@@H](O)[C@H]1O (stereo partly drawn) [N-[(3S,4R)-5-(6-Amino-purin-9-yl)-3,4-dihydroxy-tetrahydro-furan-2-ylmethyl]-N'-biphenyl-3-yl-succinamide] | 5 |
